Test results published in ChEMBL document CHEMBL1201862, “PubChem BioAssay data set” (2004).
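Assay format: 96-well plates, 48-hour exposure. Here, GI50 denotes the concentration required for 50% inhibition of growth.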 Calls of active or inactive are those of the source. No stated cut-off is given here; in the data, active = GI50 up to about 1.1 µM and inactive = higher.

Legend:
Experiment in all cases: NCI tumour cell line growth inhibition, 48 h
U-251 = test system: U-251
COLO 205 = test system: COLO 205
NCI-H460 = test system: NCI-H460
HT-29 = test system: HT-29
SK-MEL-5 = test system: SK-MEL-5
NCI-H522 = test system: NCI-H522
SF-539 = test system: SF-539
HCT-116 = test system: HCT-116
M14 = test system: M14
NCI-H23 = test system: NCI-H23
786-0 = test system: 786-0
OVCAR-5 = test system: OVCAR-5
SW-620 = test system: SW-620
SN12C = test system: SN12C
TK-10 = test system: TK-10
EKVX = test system: EKVX
HCT-15 = test system: HCT-15
SK-MEL-2 = test system: SK-MEL-2

SMILES | GI50 (U-251) | GI50 (COLO 205) | GI50 (NCI-H460) | GI50 (HT-29) | GI50 (SK-MEL-5) | GI50 (NCI-H522) | GI50 (SF-539) | GI50 (HCT-116) | GI50 (M14) | GI50 (NCI-H23) | GI50 (786-0) | GI50 (OVCAR-5) | GI50 (SW-620) | GI50 (SN12C) | GI50 (TK-10) | GI50 (EKVX) | GI50 (HCT-15) [µM] | GI50 (SK-MEL-2)
Nc1c(Br)c(=O)[nH]c(=O)n1COCCO | > 100 µM (inactive) | > 100 µM (inactive) | > 100 µM (inactive) | > 100 µM (inactive) | > 100 µM (inactive) | > 100 µM (inactive) | > 100 µM (inactive) | > 100 µM (inactive) | > 100 µM (inactive) | > 100 µM (inactive) | > 100 µM (inactive) | > 100 µM (inactive) | > 100 µM (inactive) | > 100 µM (inactive) | > 100 µM (inactive) | – | – | –
O/N=C1\C(=C\c2ccc3c(c2)OCCO3)CCCC1C(NO)c1ccc2c(c1)OCCO2 (stereo unspecified) | 19.3 µM (inactive) | 32.4 µM (inactive) | 20.5 µM (inactive) | 17.5 µM (inactive) | 16.4 µM (inactive) | 13.8 µM (inactive) | 13.4 µM (inactive) | 18.7 µM (inactive) | 17.7 µM (inactive) | – | 32.1 µM (inactive) | 32.6 µM (inactive) | 32.2 µM (inactive) | 14 µM (inactive) | 24.2 µM (inactive) | 25.2 µM (inactive) | 22.5 | –
COc1nc2c(OC)cccc2c(OC)c1C=O | > 100 µM (inactive) | > 100 µM (inactive) | > 100 µM (inactive) | > 100 µM (inactive) | > 100 µM (inactive) | > 100 µM (inactive) | > 100 µM (inactive) | 76.7 µM (inactive) | > 100 µM (inactive) | > 100 µM (inactive) | > 100 µM (inactive) | – | 96.4 µM (inactive) | > 100 µM (inactive) | > 100 µM (inactive) | > 100 µM (inactive) | > 100 | > 100 µM (inactive)
CN(C)C=C1C(Cl)=C(C=O)CC(C=O)=C1Cl | 11.4 µM (inactive) | 15.6 µM (inactive) | 20.7 µM (inactive) | 14 µM (inactive) | 10.4 µM (inactive) | 1.86 µM (inactive) | 14.8 µM (inactive) | – | 12.2 µM (inactive) | 14.6 µM (inactive) | 11.8 µM (inactive) | 15.9 µM (inactive) | 1.56 µM (inactive) | > 100 µM (inactive) | 16.7 µM (inactive) | 22.4 µM (inactive) | 3.42 | 17.6 µM (inactive)
CCN(CC)c1ccc(/N=N/c2ccc(-c3nc4cccnc4o3)cc2)cc1 | > 100 µM (inactive) | > 100 µM (inactive) | – | > 100 µM (inactive) | > 100 µM (inactive) | 66.4 µM (inactive) | > 100 µM (inactive) | > 100 µM (inactive) | > 100 µM (inactive) | > 100 µM (inactive) | > 100 µM (inactive) | > 100 µM (inactive) | > 100 µM (inactive) | > 100 µM (inactive) | > 100 µM (inactive) | > 100 µM (inactive) | > 100 | > 100 µM (inactive)
COC(=O)C12C3C=CC(O3)C1C1C=CC2O1 (stereo unspecified) | > 100 µM (inactive) | > 100 µM (inactive) | > 100 µM (inactive) | > 100 µM (inactive) | > 100 µM (inactive) | > 100 µM (inactive) | > 100 µM (inactive) | – | > 100 µM (inactive) | > 100 µM (inactive) | > 100 µM (inactive) | > 100 µM (inactive) | > 100 µM (inactive) | > 100 µM (inactive) | > 100 µM (inactive) | > 100 µM (inactive) | > 100 | > 100 µM (inactive)
CC(CC(=O)Nc1ccc(NC(=O)CC(C)/N=N\C(N)=S)cc1)/N=N\C(N)=S (stereo unspecified) | – | > 100 µM (inactive) | > 100 µM (inactive) | > 100 µM (inactive) | > 100 µM (inactive) | – | > 100 µM (inactive) | > 100 µM (inactive) | > 100 µM (inactive) | > 100 µM (inactive) | > 100 µM (inactive) | > 100 µM (inactive) | – | > 100 µM (inactive) | > 100 µM (inactive) | > 100 µM (inactive) | 85.9 | > 100 µM (inactive)
COc1ccccc1NC(=O)C1=C(C)NC(C)=C(C(=O)Nc2ccccc2OC)C1c1cccc2c1OCO2 | > 100 µM (inactive) | > 100 µM (inactive) | > 100 µM (inactive) | > 100 µM (inactive) | 46 µM (inactive) | – | 21.4 µM (inactive) | 71.9 µM (inactive) | > 100 µM (inactive) | > 100 µM (inactive) | > 100 µM (inactive) | > 100 µM (inactive) | > 100 µM (inactive) | > 100 µM (inactive) | > 100 µM (inactive) | > 100 µM (inactive) | > 100 | 48.2 µM (inactive)
OCC1CC2CC1C1(C2)OCCO1 (stereo unspecified) | > 100 µM (inactive) | > 100 µM (inactive) | > 100 µM (inactive) | > 100 µM (inactive) | > 100 µM (inactive) | > 100 µM (inactive) | > 100 µM (inactive) | > 100 µM (inactive) | > 100 µM (inactive) | > 100 µM (inactive) | > 100 µM (inactive) | > 100 µM (inactive) | > 100 µM (inactive) | > 100 µM (inactive) | > 100 µM (inactive) | > 100 µM (inactive) | – | > 100 µM (inactive)
O=C1Nc2cccc3ncn(c23)C2=C1CCCC2 | > 100 µM (inactive) | > 100 µM (inactive) | > 100 µM (inactive) | – | > 100 µM (inactive) | > 100 µM (inactive) | > 100 µM (inactive) | > 100 µM (inactive) | – | > 100 µM (inactive) | > 100 µM (inactive) | > 100 µM (inactive) | > 100 µM (inactive) | > 100 µM (inactive) | > 100 µM (inactive) | > 100 µM (inactive) | > 100 | > 100 µM (inactive)
COc1ccc2c(c1)CCCC1C3=NCCC3(C)CSC21 (stereo unspecified) | 74.5 µM (inactive) | 52.6 µM (inactive) | 74 µM (inactive) | 32.4 µM (inactive) | 42.8 µM (inactive) | 86.9 µM (inactive) | 51.6 µM (inactive) | 37.5 µM (inactive) | 37.4 µM (inactive) | 47.3 µM (inactive) | 70.3 µM (inactive) | – | > 100 µM (inactive) | > 100 µM (inactive) | 70.8 µM (inactive) | – | – | –
CC(C)c1ccc(/C=C/c2cc(C(=O)NNC(=O)NC3CCCCC3)nc(S)n2)cc1 | > 100 µM (inactive) | > 100 µM (inactive) | > 100 µM (inactive) | > 100 µM (inactive) | > 100 µM (inactive) | > 100 µM (inactive) | > 100 µM (inactive) | > 100 µM (inactive) | > 100 µM (inactive) | > 100 µM (inactive) | > 100 µM (inactive) | > 100 µM (inactive) | > 100 µM (inactive) | > 100 µM (inactive) | > 100 µM (inactive) | > 100 µM (inactive) | > 100 | –
CCC1(Br)C(=O)NC(=O)N(C2CC(O)C(CO)O2)C1N=[N+]=[N-] (stereo unspecified) | > 100 µM (inactive) | > 100 µM (inactive) | > 100 µM (inactive) | > 100 µM (inactive) | > 100 µM (inactive) | 94.4 µM (inactive) | > 100 µM (inactive) | – | > 100 µM (inactive) | 56.8 µM (inactive) | > 100 µM (inactive) | > 100 µM (inactive) | > 100 µM (inactive) | > 100 µM (inactive) | > 100 µM (inactive) | > 100 µM (inactive) | – | > 100 µM (inactive)
O=Cc1[nH]c2ccccc2c1Br | 21.6 µM (inactive) | 17.7 µM (inactive) | – | 25.1 µM (inactive) | 16.5 µM (inactive) | 56.8 µM (inactive) | 15.3 µM (inactive) | 18.5 µM (inactive) | 19.3 µM (inactive) | 30.3 µM (inactive) | 28 µM (inactive) | 98.4 µM (inactive) | 34.6 µM (inactive) | 22.6 µM (inactive) | 36.6 µM (inactive) | 35.9 µM (inactive) | – | 15.2 µM (inactive)
CC[P+]1(CC)CCCC1 | > 100 µM (inactive) | > 100 µM (inactive) | > 100 µM (inactive) | > 100 µM (inactive) | > 100 µM (inactive) | – | > 100 µM (inactive) | – | > 100 µM (inactive) | > 100 µM (inactive) | > 100 µM (inactive) | > 100 µM (inactive) | > 100 µM (inactive) | > 100 µM (inactive) | > 100 µM (inactive) | > 100 µM (inactive) | > 100 | > 100 µM (inactive)
CC1=CC2C(C=C1)S(=O)(=O)N1CC21c1ccccc1 (stereo unspecified) | > 100 µM (inactive) | > 100 µM (inactive) | > 100 µM (inactive) | > 100 µM (inactive) | > 100 µM (inactive) | > 100 µM (inactive) | > 100 µM (inactive) | > 100 µM (inactive) | > 100 µM (inactive) | > 100 µM (inactive) | > 100 µM (inactive) | > 100 µM (inactive) | > 100 µM (inactive) | > 100 µM (inactive) | > 100 µM (inactive) | – | > 100 | > 100 µM (inactive)
C[C@@H](C1CCC2C3C(=CC(=O)[C@@]21C)[C@H](C)[C@]1(CCC(=O)O1)C1OC31)[C@H]1C[C@]2(C)O[C@@](C)(O1)OC2(C)C (stereo partly specified) | > 100 µM (inactive) | > 100 µM (inactive) | > 100 µM (inactive) | > 100 µM (inactive) | > 100 µM (inactive) | > 100 µM (inactive) | > 100 µM (inactive) | > 100 µM (inactive) | > 100 µM (inactive) | > 100 µM (inactive) | > 100 µM (inactive) | – | > 100 µM (inactive) | > 100 µM (inactive) | > 100 µM (inactive) | > 100 µM (inactive) | > 100 | –
